PMC9127750, “Structure-based design of CDC42 effector interaction inhibitors for the treatment of cancer” (Cell reports, 2022)
Where “and” joins values, the source holds several entries; their conditions need not be identical. Identical values can stand only once.

Tested on: WM3248 melanoma cells, 486 antibodies
Test: Reverse phase protein arrays (RPPA)
Assay type: cell-based, Human
Description: Pellets were snap frozen in liquid nitrogen and shipped to MD Anderson Cancer Center core RPPA facility for RPPA analysis (Table S5). Three biological replicates for each sample were generated.
Nomenclatures on the RPPA heatmaps: name_of_antibody.species_of_antibody.status_of_antibody. V - antibody validated; C - validation of antibody in progress; Q - antibody nonspecific; E – under evaluation; antibodies raised in M - mouse, G - goat, R - rabbit, or T - rat.

[1] = level 5 normalized to 0, mean of 3
[2] = level 5 normalized to 0, single replicates

SMILES: CN(C)c1cccc(Nc2cc(-c3ccccc3)nc(C3CCNCC3)n2)c1 [ARN22089, N1,N1-dimethyl-N3-(6-phenyl-2-(piperidin-4-yl)pyrimidin-4-yl)benzene-1,3-diamine]
- S6 phosphorylation at serine 235/236 and 240/244 (RPPA) (WM3248, 6 h, 10 and 20 μM): inhibit S6 phosphorylation
- number of proteins with significantly influenced phosphorylation (RPPA) (WM3248, 6 h, 10 and/or 20 μM): 10
- number of proteins with significantly influenced abundance (RPPA) (WM3248, 6 h, 10 and/or 20 μM, 486 antibodies): 38
- TSC1.R.C Norm_5 Average [1]: 1.102
- TTF1.R.V Norm_5 Average [1]: 1.049
- TUFM.R.V Norm_5 Average [1]: 0.868
- Tuberin_pT1462.R.V Norm_5 Average [1]: 0.977
- Twist.M.C Norm_5 Average [1]: 0.950
- Tyro3.R.V Norm_5 Average [1]: 1.005
- U.Histone.H2B.R.C Norm_5 Average [1]: 1.142
- UBAC1.R.V Norm_5 Average [1]: 0.993
- UBQLN4.M.C Norm_5 Average [1]: 1.016
- ULK1_pS757.R.C Norm_5 Average [1]: 1.079
- UQCRC2.M.C Norm_5 Average [1]: 0.979
- UVRAG.R.C Norm_5 Average [1]: 1.020
- VASP.R.V Norm_5 Average [1]: 0.994
- VAV1.R.C Norm_5 Average [1]: 1.019
- VEGFR.2.R.V Norm_5 Average [1]: 1.081
- VEGFR.2_pY1175.R.C Norm_5 Average [1]: 0.910
- VHL.R.C Norm_5 Average [1]: 0.932
- Vinculin.M.V Norm_5 Average [1]: 1.019
- WIPI1.R.C Norm_5 Average [1]: 1.058
- WIPI2.R.C Norm_5 Average [1]: 1.061
- WTAP.R.V Norm_5 Average [1]: 0.959
- Wee1.R.C Norm_5 Average [1]: 1.054
- Wee1_pS642.R.C Norm_5 Average [1]: 0.993
- XBP.1.G.C Norm_5 Average [1]: 0.977
- XIAP.R.C Norm_5 Average [1]: 1.035
- XPA.M.V Norm_5 Average [1]: 0.929
- XPF.R.C Norm_5 Average [1]: 0.943
- XRCC1.R.C Norm_5 Average [1]: 0.946
- YAP.R.C Norm_5 Average [1]: 0.953
- YAP_pS127.R.V Norm_5 Average [1]: 0.906
- YB1_pS102.R.V Norm_5 Average [1]: 0.961
- YES1.R.V Norm_5 Average [1]: 0.962
- YTHDF2.R.V Norm_5 Average [1]: 1.076
- YTHDF3.R.C Norm_5 Average [1]: 0.987
- ZAP.70.R.V Norm_5 Average [1]: 0.952
- ZEB1.R.V Norm_5 Average [1]: 0.892
- TSC1.R.C Norm_5_1 to Norm_5_3 [2]: 1.060 and 1.024 and 1.221
- TTF1.R.V Norm_5_1 to Norm_5_3 [2]: 1.035 and 1.145 and 0.966
- TUFM.R.V Norm_5_1 to Norm_5_3 [2]: 0.845 and 0.669
- Tuberin.R.V Norm_5_1 to Norm_5_3 [2]: 1.052 and 1.301
- Tuberin_pT1462.R.V Norm_5_1 to Norm_5_3 [2]: 0.994 and 0.956 and 0.983
- Twist.M.C Norm_5_1 to Norm_5_3 [2]: 0.898 and 0.964 and 0.990
- Tyro3.R.V Norm_5_1 to Norm_5_3 [2]: 1.008 and 1.152 and 0.855
- U.Histone.H2B.R.C Norm_5_1 to Norm_5_3 [2]: 1.497 and 1.118 and 0.811
- UBAC1.R.V Norm_5_1 to Norm_5_3 [2]: 0.966 and 1.139 and 0.875
- UBQLN4.M.C Norm_5_1 to Norm_5_3 [2]: 0.962 and 1.147
- UGT1A.M.V Norm_5_1 to Norm_5_3 [2]: 0.962 and 0.965 and 0.979
- ULK1_pS757.R.C Norm_5_1 to Norm_5_3 [2]: 0.993 and 1.063
- UQCRC2.M.C Norm_5_1 to Norm_5_3 [2]: 0.997 and 1.139 and 0.800
- UVRAG.R.C Norm_5_1 to Norm_5_3 [2]: 1.096 and 0.960 and 1.005
- VASP.R.V Norm_5_1 to Norm_5_3 [2]: 1.053 and 0.992
- VAV1.R.C Norm_5_1 to Norm_5_3 [2]: 1.027 and 0.961
- VEGFR.2.R.V Norm_5_1 to Norm_5_3 [2]: 0.985 and 1.166
- VEGFR.2_pY1175.R.C Norm_5_1 to Norm_5_3 [2]: 0.849 and 0.870 and 1.011
- VHL.EPPK1.M.C Norm_5_1 to Norm_5_3 [2]: 0.542 and 1.028 and 0.909
- VHL.R.C Norm_5_1 to Norm_5_3 [2]: 0.928 and 0.903 and 0.966
- Vinculin.M.V Norm_5_1 to Norm_5_3 [2]: 0.942 and 1.027
- WIPI1.R.C Norm_5_1 to Norm_5_3 [2]: 1.134 and 1.302 and 0.738
- WIPI2.R.C Norm_5_1 to Norm_5_3 [2]: 1.104 and 0.916 and 1.163
- WTAP.R.V Norm_5_1 to Norm_5_3 [2]: 0.932 and 0.904
- Wee1.R.C Norm_5_1 to Norm_5_3 [2]: 0.867 and 1.101 and 1.195
- Wee1_pS642.R.C Norm_5_1 to Norm_5_3 [2]: 0.917 and 0.940 and 1.121
- XBP.1.G.C Norm_5_1 to Norm_5_3 [2]: 0.957 and 1.060 and 0.914
- XIAP.R.C Norm_5_1 to Norm_5_3 [2]: 1.060 and 0.982 and 1.062
- XPA.M.V Norm_5_1 to Norm_5_3 [2]: 0.895 and 0.876 and 1.017
- XPF.R.C Norm_5_1 to Norm_5_3 [2]: 0.932 and 0.922 and 0.975
- XRCC1.R.C Norm_5_1 to Norm_5_3 [2]: 0.894 and 1.030 and 0.916
- YAP.R.C Norm_5_1 to Norm_5_3 [2]: 0.937 and 0.945 and 0.977
- YAP_pS127.R.V Norm_5_1 to Norm_5_3 [2]: 0.985 and 0.903 and 0.830
- YB1_pS102.R.V Norm_5_1 to Norm_5_3 [2]: 0.906
- YES1.R.V Norm_5_1 to Norm_5_3 [2]: 0.963 and 1.014 and 0.910
- YTHDF2.R.V Norm_5_1 to Norm_5_3 [2]: 1.138 and 1.217 and 0.872
- YTHDF3.R.C Norm_5_1 to Norm_5_3 [2]: 1.049 and 0.875
- ZAP.70.R.V Norm_5_1 to Norm_5_3 [2]: 0.889 and 1.054
- ZEB1.R.V Norm_5_1 to Norm_5_3 [2]: 0.816 and 0.893 and 0.967
- HLA.DQA1.R.V Norm_5 Average (level 5 vs 0): 0.908
- HLA.DR.DP.DQ.DX.R.C Norm_5 Average (level 5 vs 0): 0.994
- HSP27.M.C Norm_5 Average (level 5 vs 0): 0.932
- HSP27_pS82.R.V Norm_5 Average (level 5 vs 0): 1.025
- HSP60.R.V Norm_5 Average (level 5 vs 0): 1.006
- HSP70.R.C Norm_5 Average (level 5 vs 0): 1.035
- Hexokinase.I.R.C Norm_5 Average (level 5 vs 0): 1.032
- Hexokinase.II.R.V Norm_5 Average (level 5 vs 0): 1.130
- Hif.1αR.C Norm_5 Average (level 5 vs 0): 1.202
- Histone.H3.R.V Norm_5 Average (level 5 vs 0): 1.065
- Histone.H3_pS10.R.V Norm_5 Average (level 5 vs 0): 0.786
- IDO.R.C Norm_5 Average (level 5 vs 0): 1.015
- IGF1R_pY1135_Y1136.R.V Norm_5 Average (level 5 vs 0): 1.003
- IGFBP2.R.V Norm_5 Average (level 5 vs 0): 1.029
- IGFBP3.M.V Norm_5 Average (level 5 vs 0): 0.953
- IGFRb.R.C Norm_5 Average (level 5 vs 0): 1.085
- IL.6.R.C Norm_5 Average (level 5 vs 0): 1.015
- INPP4b.R.C Norm_5 Average (level 5 vs 0): 1.023
- IR.b.R.C Norm_5 Average (level 5 vs 0): 1.051
- IRF.1.R.V Norm_5 Average (level 5 vs 0): 0.995
- IRF.3.R.V Norm_5 Average (level 5 vs 0): 0.937
- IRS1.R.V Norm_5 Average (level 5 vs 0): 1.023
- IRS2.R.C Norm_5 Average (level 5 vs 0): 0.992
- JNK2.R.V Norm_5 Average (level 5 vs 0): 1.065
- JNK_pT183_Y185.R.C Norm_5 Average (level 5 vs 0): 0.992
- Jagged1.R.V Norm_5 Average (level 5 vs 0): 0.984
- Jak2.R.V Norm_5 Average (level 5 vs 0): 1.003
- KEAP1.R.V Norm_5 Average (level 5 vs 0): 0.955
- LAD1.R.V Norm_5 Average (level 5 vs 0): 0.963
- LC3A.B.R.C Norm_5 Average (level 5 vs 0): 1.012
- LCN2.R.V Norm_5 Average (level 5 vs 0): 1.298
- LDHA.R.C Norm_5 Average (level 5 vs 0): 1.102
- LRP6_pS1490.R.V Norm_5 Average (level 5 vs 0): 1.046
- Lasu1.R.V Norm_5 Average (level 5 vs 0): 0.972
- Lck.R.V Norm_5 Average (level 5 vs 0): 1.010
- Lyn.R.V Norm_5 Average (level 5 vs 0): 0.844
- MAPK_pT202_Y204.R.C Norm_5 Average (level 5 vs 0): 0.869
- MCT4.R.V Norm_5 Average (level 5 vs 0): 1.048
- MDM2_pS166.R.V Norm_5 Average (level 5 vs 0): 1.023
- MEK1.R.V Norm_5 Average (level 5 vs 0): 1.023
- MEK1_pS217_S221.R.V Norm_5 Average (level 5 vs 0): 0.982
- MERIT40.R.C Norm_5 Average (level 5 vs 0): 0.989
- METTL3.R.V Norm_5 Average (level 5 vs 0): 0.986
- MIF.R.C Norm_5 Average (level 5 vs 0): 0.948
- MIG6.R.V Norm_5 Average (level 5 vs 0): 0.939
- MITF.R.V Norm_5 Average (level 5 vs 0): 1.020
- MLH1.M.V Norm_5 Average (level 5 vs 0): 0.926
- MLKL.R.V Norm_5 Average (level 5 vs 0): 0.945
- MMP2.R.V Norm_5 Average (level 5 vs 0): 0.946
- MR1.M.C Norm_5 Average (level 5 vs 0): 0.994
- MRAP.R.C Norm_5 Average (level 5 vs 0): 1.051
- MSH2.R.C Norm_5 Average (level 5 vs 0): 0.954
- MSH6.R.C Norm_5 Average (level 5 vs 0): 1.056
- MSI2.R.C Norm_5 Average (level 5 vs 0): 1.081
- MTCO1.M.V Norm_5 Average (level 5 vs 0): 1.081
- MTSS1.M.C Norm_5 Average (level 5 vs 0): 0.950
- Mcl.1.R.V Norm_5 Average (level 5 vs 0): 0.960
- MelanA.R.C Norm_5 Average (level 5 vs 0): 1.007
- Melanoma.gp100.R.C Norm_5 Average (level 5 vs 0): 1.060
- Merlin.R.C Norm_5 Average (level 5 vs 0): 1.018
- Midkine.R.V Norm_5 Average (level 5 vs 0): 0.932
- Mitofusin.1.R.V Norm_5 Average (level 5 vs 0): 1.025
- Mnk1.R.V Norm_5 Average (level 5 vs 0): 1.012
- mTOR.R.V Norm_5 Average (level 5 vs 0): 1.033
- mTOR_pS2448.R.C Norm_5 Average (level 5 vs 0): 1.080
- HLA.DQA1.R.V Norm_5 (level 5 vs 0, replicates): 0.839 and 1.026 and 0.858
- HLA.DR.DP.DQ.DX.R.C Norm_5 (level 5 vs 0, replicates): 0.915 and 1.122 and 0.946
- HMHA1.R.V Norm_5 (level 5 vs 0, replicates): 1.034 and 1.050 and 1.124
- HNRNPK.R.V Norm_5 (level 5 vs 0, replicates): 0.924 and 0.922 and 0.995
- HSP27.M.C Norm_5 (level 5 vs 0, replicates): 0.955 and 1.006 and 0.835
- HSP27_pS82.R.V Norm_5 (level 5 vs 0, replicates): 0.966 and 0.991 and 1.118
- HSP60.R.V Norm_5 (level 5 vs 0, replicates): 1.007 and 0.973
- HSP70.R.C Norm_5 (level 5 vs 0, replicates): 1.007 and 1.047 and 1.051
- Hexokinase.I.R.C Norm_5 (level 5 vs 0, replicates): 1.009 and 1.149
- Hexokinase.II.R.V Norm_5 (level 5 vs 0, replicates): 1.156 and 1.123 and 1.110
- Hif.1αR.C Norm_5 (level 5 vs 0, replicates): 1.356 and 1.081 and 1.170
- Histone.H3.R.V Norm_5 (level 5 vs 0, replicates): 1.165 and 1.542 and 0.488
- Histone.H3_pS10.R.V Norm_5 (level 5 vs 0, replicates): 0.733 and 1.032 and 0.592
- IDO.R.C Norm_5 (level 5 vs 0, replicates): 1.121 and 0.959 and 0.966
- IGF1R_pY1135_Y1136.R.V Norm_5 (level 5 vs 0, replicates): 0.933 and 1.035
- IGFBP2.R.V Norm_5 (level 5 vs 0, replicates): 0.940 and 1.033 and 1.113
- IGFBP3.M.V Norm_5 (level 5 vs 0, replicates): 0.833 and 0.934
- IGFRb.R.C Norm_5 (level 5 vs 0, replicates): 1.063 and 1.065 and 1.126
- IL.6.R.C Norm_5 (level 5 vs 0, replicates): 1.051 and 0.961 and 1.033
- IMP3.R.C Norm_5 (level 5 vs 0, replicates): 0.861 and 0.973 and 1.018
